{"source": "paper PMC7044277", "about": "(Nature Communications, 2020)", "key": {"[1]": {"molecular_target": "DRD2 (D2 long receptor) wild-type (Homo sapiens, UniProt P14416)", "sequence (P14416 whole entry)": "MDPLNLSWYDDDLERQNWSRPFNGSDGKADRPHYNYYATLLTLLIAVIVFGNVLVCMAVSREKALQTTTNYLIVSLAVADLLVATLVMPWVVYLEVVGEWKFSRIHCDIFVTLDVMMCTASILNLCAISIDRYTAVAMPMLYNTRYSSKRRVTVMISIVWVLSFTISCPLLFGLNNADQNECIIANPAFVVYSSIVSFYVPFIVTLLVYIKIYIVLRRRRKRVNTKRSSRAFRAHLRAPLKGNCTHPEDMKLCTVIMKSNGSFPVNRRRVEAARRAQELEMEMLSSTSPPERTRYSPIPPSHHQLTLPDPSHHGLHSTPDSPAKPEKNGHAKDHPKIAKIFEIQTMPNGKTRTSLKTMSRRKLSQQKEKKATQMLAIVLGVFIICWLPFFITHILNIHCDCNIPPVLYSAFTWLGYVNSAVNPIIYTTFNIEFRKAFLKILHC", "experiment": "Radioligand competition binding, [3H]-N-methylspiperone, HEK293T membranes", "set-up": "Fig_1a competition binding curve, source data: unit not given here", "conditions": "Log [L-741626]"}, "DRD3 wild-type": {"molecular_target": "DRD3 wild-type (Homo sapiens, UniProt P35462)", "sequence (P35462 whole entry)": "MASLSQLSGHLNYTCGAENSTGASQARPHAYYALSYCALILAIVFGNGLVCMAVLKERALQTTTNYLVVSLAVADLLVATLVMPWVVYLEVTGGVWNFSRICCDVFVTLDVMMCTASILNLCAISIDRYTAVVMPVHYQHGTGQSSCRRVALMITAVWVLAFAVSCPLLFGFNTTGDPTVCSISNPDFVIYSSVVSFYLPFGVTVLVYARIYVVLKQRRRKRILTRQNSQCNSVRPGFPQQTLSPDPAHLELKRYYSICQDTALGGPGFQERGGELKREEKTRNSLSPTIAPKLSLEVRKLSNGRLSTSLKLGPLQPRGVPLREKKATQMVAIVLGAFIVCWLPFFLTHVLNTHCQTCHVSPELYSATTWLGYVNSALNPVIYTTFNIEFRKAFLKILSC", "experiment": "Radioligand competition binding, [3H]-N-methylspiperone", "set-up": "Fig_1a competition binding curve, source data: unit not given here", "conditions": "for Fig_1a competition binding curve, source data: Log [L-741626]"}, "[2]": {"molecular_target": "T1, DRD4 (D4.4 variant) wild-type (Homo sapiens, UniProt P21917)", "T1 sequence (P21917 1-419)": "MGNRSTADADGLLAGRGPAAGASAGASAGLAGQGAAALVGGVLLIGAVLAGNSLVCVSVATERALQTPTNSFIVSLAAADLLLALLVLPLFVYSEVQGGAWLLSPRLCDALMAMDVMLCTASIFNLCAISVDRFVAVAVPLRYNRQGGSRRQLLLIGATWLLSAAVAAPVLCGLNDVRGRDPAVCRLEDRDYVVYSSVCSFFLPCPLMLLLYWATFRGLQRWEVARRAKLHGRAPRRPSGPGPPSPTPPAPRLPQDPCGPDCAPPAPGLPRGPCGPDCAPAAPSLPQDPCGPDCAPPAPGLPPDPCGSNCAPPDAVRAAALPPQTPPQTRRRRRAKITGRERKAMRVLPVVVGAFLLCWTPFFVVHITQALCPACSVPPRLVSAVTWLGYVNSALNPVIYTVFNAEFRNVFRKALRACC", "experiment": "Radioligand competition binding, [3H]-N-methylspiperone", "conditions": "for Fig_1a competition binding curve, source data: Log [L-741626]"}, "DRD2 L942.64A": {"molecular_target": "T2, DRD2 L942.64A (Homo sapiens, UniProt P14416, L94A)", "T2 construct": "expressed in transfected cells; host or cells: HEK293T (ATCC CRL-11268)", "T2 sequence (P14416 whole entry L94A)": "as the sequence (P14416 whole entry) above, with L94A counted along it", "assay_type": "binding", "conditions": "DRD2 L942.64A vs DRD2 wild-type"}, "DRD2 W100EL1A": {"molecular_target": "T3, DRD2 W100EL1A (Homo sapiens, UniProt P14416, W100A)", "T3 construct": "expressed in transfected cells; host or cells: HEK293T (ATCC CRL-11268)", "T3 sequence (P14416 whole entry W100A)": "as the sequence (P14416 whole entry) above, with W100A counted along it", "assay_type": "binding", "conditions": "DRD2 W100EL1A vs wild-type"}, "DRD2 W100ECL1F": {"molecular_target": "T4, DRD2 W100ECL1F (Homo sapiens, UniProt P14416, W100F)", "T4 construct": "expressed in transfected cells; host or cells: HEK293T (ATCC CRL-11268)", "T4 sequence (P14416 whole entry W100F)": "as the sequence (P14416 whole entry) above, with W100F counted along it", "assay_type": "binding", "conditions": "DRD2 W100ECL1F vs wild-type"}, "DRD2 V1113.29A": {"molecular_target": "T5, DRD2 V1113.29A (Homo sapiens, UniProt P14416, V111A)", "T5 construct": "expressed in transfected cells; host or cells: HEK293T (ATCC CRL-11268)", "T5 sequence (P14416 whole entry V111A)": "as the sequence (P14416 whole entry) above, with V111A counted along it", "assay_type": "binding", "conditions": "DRD2 V1113.29A vs wild-type"}, "DRD2 Y4087.35A": {"molecular_target": "T6, DRD2 Y4087.35A (Homo sapiens, UniProt P14416, Y408A)", "T6 construct": "expressed in transfected cells; host or cells: HEK293T (ATCC CRL-11268)", "T6 sequence (P14416 whole entry Y408A)": "as the sequence (P14416 whole entry) above, with Y408A counted along it", "assay_type": "binding", "conditions": "DRD2 Y4087.35A vs wild-type"}, "DRD2 F1103.28W": {"molecular_target": "T7, DRD2 F1103.28W (Homo sapiens, UniProt P14416, F110W)", "T7 construct": "expressed in transfected cells; host or cells: HEK293T (ATCC CRL-11268)", "T7 sequence (P14416 whole entry F110W)": "as the sequence (P14416 whole entry) above, with F110W counted along it", "assay_type": "binding"}, "DRD2 F1103.28Y": {"molecular_target": "T8, DRD2 F1103.28Y (Homo sapiens, UniProt P14416, F110Y)", "T8 construct": "expressed in transfected cells; host or cells: HEK293T (ATCC CRL-11268)", "T8 sequence (P14416 whole entry F110Y)": "as the sequence (P14416 whole entry) above, with F110Y counted along it", "assay_type": "binding"}, "DRD2 F1103.28L": {"molecular_target": "T9, DRD2 F1103.28L (Homo sapiens, UniProt P14416, F110L)", "T9 construct": "expressed in transfected cells; host or cells: HEK293T (ATCC CRL-11268)", "T9 sequence (P14416 whole entry F110L)": "as the sequence (P14416 whole entry) above, with F110L counted along it", "assay_type": "binding"}, "DRD2 F1103.28C": {"molecular_target": "T10, DRD2 F1103.28C (Homo sapiens, UniProt P14416, F110C)", "T10 construct": "expressed in transfected cells; host or cells: HEK293T (ATCC CRL-11268)", "T10 sequence (P14416 whole entry F110C)": "as the sequence (P14416 whole entry) above, with F110C counted along it", "assay_type": "binding", "conditions": "DRD2 F1103.28C vs wild-type"}, "DRD2 F1103.28E": {"molecular_target": "T11, DRD2 F1103.28E (Homo sapiens, UniProt P14416, F110E)", "T11 construct": "expressed in transfected cells; host or cells: HEK293T (ATCC CRL-11268)", "T11 sequence (P14416 whole entry F110E)": "as the sequence (P14416 whole entry) above, with F110E counted along it", "assay_type": "binding", "conditions": "DRD2 F1103.28E vs wild-type"}, "DRD3 F1063.28A": {"molecular_target": "DRD3 F1063.28A (Homo sapiens, UniProt P35462, F106A)", "sequence (P35462 whole entry F106A)": "as the sequence (P35462 whole entry) above, with F106A counted along it", "experiment": "biochemical", "assay_type": "binding"}, "DRD2 F1103.28A": {"molecular_target": "DRD2 F1103.28A (Homo sapiens, UniProt P14416, F110A)", "sequence (P14416 whole entry F110A)": "as the sequence (P14416 whole entry) above, with F110A counted along it", "assay_type": "binding", "set-up": "expressed in transfected cells; host or cells: HEK293T (ATCC CRL-11268)"}}, "note": "Several values for one entry are separate records, joined by “and”; a condition that tells them apart may be missing. Equal values may be shown once.", "data": [{"smiles": "OC1(c2ccc(Cl)cc2)CCN(Cc2c[nH]c3ccccc23)CC1", "note": "[L-741626]", "values": [{"measurement": "Fig_1a competition binding curve, source data", "setting": "[1]; M -4, replicates", "value": "-1.355 and 1.993 and -0.6377 and -1.594 and 3.428 and -1.8334"}, {"measurement": "Fig_1a competition binding curve, source data", "setting": "[1]; M -7", "value": "29.733 and 32.3635 and 33.0809 and 32.8418 and 34.0375 and 33.3201"}, {"measurement": "Fig_1a competition binding curve, source data", "setting": "[1]; M -8", "value": "78.2782 and 80.4304 and 73.2563 and 83.061 and 72.778 and 84.4958"}, {"measurement": "Fig_1a competition binding curve, source data", "setting": "[1]; M -8.5", "value": "93.8222 and 94.0614 and 107.453 and 92.6265 and 93.1048"}, {"measurement": "Fig_1a competition binding curve, source data", "setting": "[1]; M -9", "value": "100.279 and 96.4528 and 102.67 and 87.1264 and 100.04 and 104.584"}, {"measurement": "Fig_1a competition binding curve, source data", "setting": "[1]; M -9.5", "value": "97.4093 and 108.171 and 98.605 and 95.0179 and 103.388"}, {"measurement": "Fig_1a competition binding curve, source data", "setting": "[1]; M -10", "value": "91.5385 and 88.2344 and 89.4739"}, {"measurement": "Fig_1a competition binding curve, source data", "setting": "[1]; M -11", "value": "89.0395 and 93.1048 and 90.4743 and 90.2352 and 86.4089 and 84.7349"}, {"measurement": "Fig_1a competition binding curve, source data", "setting": "[1]; M -12", "value": "100.518 and 86.6481 and 95.4962 and 94.7788 and 98.1268 and 94.5397"}, {"measurement": "Fig_1a competition binding curve, source data", "setting": "[1]; M -13", "value": "93.8222 and 89.2786 and 87.6046 and 85.6915 and 92.3874 and 93.1048"}, {"measurement": "Ki", "setting": "DRD3 wild-type", "value": 186, "unit": "nM"}, {"measurement": "Fig_1a competition binding curve, source data", "setting": "DRD3 wild-type; M -6", "value": "32.8337 and 26.7408 and 38.6364 and 33.7041 and 31.0928"}, {"measurement": "Fig_1a competition binding curve, source data", "setting": "DRD3 wild-type; M -7", "value": "71.7118 and 82.4468 and 88.2495 and 78.675 and 74.323 and 84.4778"}, {"measurement": "Fig_1a competition binding curve, source data", "setting": "DRD3 wild-type; M -8.5", "value": "107.108 and 98.6944 and 100.725 and 87.3791 and 104.497 and 101.596"}, {"measurement": "Fig_1a competition binding curve, source data", "setting": "DRD3 wild-type; M -9", "value": "98.4043 and 97.5338 and 93.7621 and 84.7679 and 88.8298 and 89.7002"}, {"measurement": "Fig_1a competition binding curve, source data", "setting": "DRD3 wild-type; M -9.5", "value": "87.3791 and 78.3849 and 90.2805 and 81.5764 and 85.058 and 98.1141"}, {"measurement": "Fig_1a competition binding curve, source data", "setting": "DRD3 wild-type; M -10", "value": "76.9342 and 89.7002 and 81.8665 and 72.2921 and 84.1876 and 72.0019"}, {"measurement": "Fig_1a competition binding curve, source data", "setting": "DRD3 wild-type; M -11", "value": "74.6132 and 85.6383 and 84.7679 and 77.8046 and 89.7002 and 91.441"}, {"measurement": "Fig_1a competition binding curve, source data", "setting": "DRD3 wild-type; M -12", "value": "84.7679 and 85.9284 and 102.466 and 78.0948 and 88.2495"}, {"measurement": "Fig_1a competition binding curve, source data", "setting": "DRD3 wild-type; M -13", "value": "63.0077 and 75.4836 and 75.1934 and 78.675 and 77.5145 and 81.2863"}, {"measurement": "Ki", "setting": "[2]", "value": 170, "unit": "nM"}, {"measurement": "Fig_1a competition binding curve, source data", "setting": "[2]; M -7", "value": "75.0526 and 67.9047 and 62.8591 and 59.9159 and 75.8935"}, {"measurement": "Fig_1a competition binding curve, source data", "setting": "[2]; M -8", "value": "91.8711 and 84.3027 and 93.5529 and 96.4962"}, {"measurement": "Fig_1a competition binding curve, source data", "setting": "[2]; M -8.5", "value": "103.224 and 99.4394 and 102.803 and 91.8711"}, {"measurement": "Fig_1a competition binding curve, source data", "setting": "[2]; M -9", "value": "79.2572 and 91.8711 and 89.7687 and 85.9846 and 96.9166 and 113.735"}, {"measurement": "Fig_1a competition binding curve, source data", "setting": "[2]; M -9.5", "value": "89.7687 and 87.246 and 104.905 and 87.6664 and 93.1325 and 88.9278"}, {"measurement": "Fig_1a competition binding curve, source data", "setting": "[2]; M -10", "value": "74.6321 and 83.0413 and 75.8935 and 70.4275 and 85.5641 and 84.3027"}, {"measurement": "Fig_1a competition binding curve, source data", "setting": "[2]; M -11", "value": "92.712 and 78.8367 and 85.1437 and 96.4962 and 77.9958 and 82.6209"}, {"measurement": "Fig_1a competition binding curve, source data", "setting": "[2]; M -12", "value": "77.1549 and 85.1437 and 89.7687 and 83.4618 and 81.3595"}, {"measurement": "Fig_1a competition binding curve, source data", "setting": "[2]; M -13", "value": "88.0869 and 85.5641 and 82.6209 and 79.6776 and 79.2572"}, {"measurement": "ΔpKi (mutant-WT)", "setting": "DRD2 L942.64A", "value": -0.45}, {"measurement": "ΔpKi (mutant-WT)", "setting": "DRD2 W100EL1A", "value": -0.79}, {"measurement": "ΔpKi (mutant-WT)", "setting": "DRD2 W100ECL1F", "value": -0.85}, {"measurement": "ΔpKi (mutant-WT)", "setting": "DRD2 V1113.29A", "value": -0.26}, {"measurement": "ΔpKi (mutant-WT)", "setting": "DRD2 Y4087.35A", "value": -0.10}, {"measurement": "ΔpKi (mutant-WT)", "setting": "DRD2 F1103.28W; DRD2 F1103.28W vs wild-type", "value": -0.93}, {"measurement": "binding reduced, mutant vs wild type", "setting": "DRD2 F1103.28W; DRD2 Phe110^3.28Trp vs wild-type DRD2", "value": 8.51, "unit": "fold"}, {"measurement": "ΔpKi (mutant-WT)", "setting": "DRD2 F1103.28Y; DRD2 F1103.28Y vs wild-type", "value": -1.76}, {"measurement": "binding reduced, mutant vs wild type", "setting": "DRD2 F1103.28Y; DRD2 Phe110^3.28Tyr vs wild-type DRD2", "value": 57.54, "unit": "fold"}, {"measurement": "ΔpKi (mutant-WT)", "setting": "DRD2 F1103.28L; DRD2 F1103.28L vs wild-type", "value": 1.27}, {"measurement": "binding enhanced, mutant vs wild type", "setting": "DRD2 F1103.28L; DRD2 Phe110^3.28Leu vs wild-type DRD2", "value": 18.65, "unit": "fold"}, {"measurement": "ΔpKi (mutant-WT)", "setting": "DRD2 F1103.28C", "value": 0.61}, {"measurement": "ΔpKi (mutant-WT)", "setting": "DRD2 F1103.28E", "value": 0.03}, {"measurement": "Ki", "setting": "DRD3 F1063.28A", "value": 5.37, "unit": "nM"}, {"measurement": "ΔpKi (mutant-WT)", "setting": "DRD3 F1063.28A; DRD3 F1063.28A vs DRD3 wild-type", "value": 1.54}, {"measurement": "binding affinity increased, mutant vs wild type", "setting": "DRD3 F1063.28A; DRD3 Phe106^3.28Ala vs wild-type DRD3", "value": 34.67, "unit": "fold"}, {"measurement": "ΔpKi (mutant-WT)", "setting": "DRD2 F1103.28A; DRD2 F1103.28A vs wild-type", "value": 2.14}, {"measurement": "affinity increase (binding enhanced), mutant vs wild type", "setting": "DRD2 F1103.28A; DRD2 Phe110^3.28Ala vs wild-type DRD2", "value": 144.18, "unit": "fold"}]}]}
